PubChem BioAssay (NCI)
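Dose response: 5 concentrations. Exposure: 48 h. Format: 96-well plates. Endpoint: linear interpolation; highest concentration if not reached. Here, GI50 denotes the concentration required for 50% inhibition of growth. Definition used: TGI = concentration required for complete inhibition of growth.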

Tests used:
Assay in all cases: NCI anticancer screen, dose series, 48 h
[1] = system: 786-0 renal
[2] = system: BT-549 breast
[3] = system: HCC-2998 colon
[4] = system: HCT-116 colon
[5] = system: HL-60(TB) leukemia
[6] = system: KM12 colon
[7] = system: OVCAR-5 ovarian
[8] = system: RXF 393 renal
[9] = system: SF-539 CNS
[10] = system: TK-10 renal

Compound: CC1(C)N=C(N)N=C(N)N1c1ccc(CCCCc2ccc(Cl)cc2S(=O)(=O)F)c(Cl)c1
- GI50 [1]: 0.428 µM
- TGI [1]: 8.08 µM
- GI50 [2]: 2.64 µM
- TGI [2]: 24.3 µM
- GI50 [3]: 1.15 µM
- TGI [3]: 21.2 µM
- GI50 [4]: 0.346 µM
- TGI [4]: > 38.3 µM
- GI50 [5]: 0.107 µM
- TGI [5]: 3.26 µM
- GI50 [6]: 0.551 µM
- TGI [6]: 14.4 µM
- GI50 [7]: 0.666 µM
- TGI [7]: 22.8 µM
- GI50 [8]: 1.26 µM
- TGI [8]: 20.4 µM
- GI50 [9]: 0.539 µM
- TGI [9]: 6.76 µM
- GI50 [10]: 5.82 µM
- TGI [10]: 25.7 µM

Compound: COc1cc(OCc2cccc(-c3ccc(C(O)c4nccs4)cc3)c2C)cc(OC)c1C=O (stereo not given)
- GI50 [1]: 2.16 µM
- TGI [1]: 7.2 µM
- GI50 [2]: 1.77 µM
- TGI [2]: 6.78 µM
- GI50 [3]: 2.28 µM
- TGI [3]: 7.08 µM
- GI50 [4]: 1.44 µM
- TGI [4]: 4.51 µM
- GI50 [5]: 1.87 µM
- TGI [5]: 4.85 µM
- GI50 [6]: 3.02 µM
- TGI [6]: 11 µM
- GI50 [7]: 0.929 µM
- TGI [7]: 5.54 µM
- GI50 [8]: 2.22 µM
- TGI [8]: 6.93 µM
- GI50 [9]: 1.96 µM
- TGI [9]: 4.83 µM
- GI50 [10]: 1.69 µM
- TGI [10]: 13.7 µM

Compound: Cn1cc(C2=C(c3ccc(N)cc3)C(=O)NC2=O)c2ccccc21
- GI50 [1]: 11.9 µM
- TGI [1]: > 25 µM
- GI50 [2]: 11.4 µM
- TGI [2]: > 25 µM
- GI50 [3]: > 25 µM
- TGI [3]: > 25 µM
- GI50 [4]: 11.3 µM
- TGI [4]: > 25 µM
- GI50 [5]: 8.58 µM
- TGI [5]: > 25 µM
- GI50 [6]: 10.9 µM
- TGI [6]: > 25 µM
- GI50 [7]: > 25 µM
- TGI [7]: > 25 µM
- GI50 [8]: 4.85 µM
- TGI [8]: > 22.9 µM
- GI50 [9]: 9.02 µM
- TGI [9]: > 25 µM
- GI50 [10]: > 25 µM
- TGI [10]: > 25 µM

Compound: CCN(CC)CCC(CNc1ccnc2cc(Cl)ccc12)c1ccc(Cl)cc1 (stereo not given)
- GI50 [1]: 1.34 µM
- TGI [1]: 2.68 µM
- GI50 [2]: 1.73 µM
- TGI [2]: 3.4 µM
- GI50 [3]: 0.642 µM
- TGI [3]: 2.03 µM
- GI50 [4]: 1.01 µM
- TGI [4]: 2.32 µM
- GI50 [5]: 1.34 µM
- TGI [5]: 3.94 µM
- GI50 [6]: 1.79 µM
- TGI [6]: 4.44 µM
- GI50 [7]: 3.01 µM
- TGI [7]: 11.2 µM
- GI50 [8]: 1.04 µM
- TGI [8]: 2.32 µM
- GI50 [9]: 1.25 µM
- TGI [9]: 2.77 µM
- GI50 [10]: 0.436 µM
- TGI [10]: 1.63 µM

Compound: CSC1=Nc2c(c(C)c(C)n2COC(CO)CO)C2=NC(=O)C(C)N12 (stereo not given)
- GI50 [1]: > 100 µM
- TGI [1]: > 100 µM
- GI50 [2]: > 100 µM
- TGI [2]: > 100 µM
- GI50 [3]: > 100 µM
- TGI [3]: > 100 µM
- GI50 [4]: > 100 µM
- TGI [4]: > 100 µM
- TGI [5]: > 100 µM
- GI50 [6]: > 100 µM
- TGI [6]: > 100 µM
- GI50 [7]: > 100 µM
- TGI [7]: > 100 µM
- GI50 [8]: > 100 µM
- TGI [8]: > 100 µM
- GI50 [9]: > 100 µM
- TGI [9]: > 100 µM
- GI50 [10]: > 100 µM
- TGI [10]: > 100 µM

Compound: NC(=O)/C=C/C(=O)c1c(Cl)cccc1Cl
- GI50 [1]: 2.14 µM
- GI50 [2]: 1.59 µM
- TGI [2]: 3.03 µM
- GI50 [3]: 1.51 µM
- TGI [3]: 2.88 µM
- GI50 [4]: 0.476 µM
- GI50 [5]: 0.679 µM
- TGI [5]: 4.05 µM
- GI50 [6]: 1.59 µM
- TGI [6]: 3.02 µM
- GI50 [7]: 1.74 µM
- TGI [7]: 3.41 µM
- GI50 [8]: 0.601 µM
- TGI [8]: 1.4 µM
- GI50 [9]: 1.41 µM
- TGI [9]: 2.71 µM
- GI50 [10]: 1.22 µM
- TGI [10]: 2.92 µM

Compound: CC(=O)CCn1c(=S)sc2ccccc21
- TGI [1]: > 100 µM
- TGI [2]: > 100 µM
- TGI [3]: > 100 µM
- TGI [4]: > 100 µM
- TGI [5]: > 100 µM
- TGI [6]: > 100 µM
- TGI [7]: > 100 µM
- TGI [8]: > 100 µM
- TGI [9]: > 100 µM
- TGI [10]: > 100 µM

Compound: Cn1c(I)c(C#CCO[Si](C)(C)C(C)(C)C)c(=O)[nH]c1=O
- GI50 [1]: 18.6 µM
- TGI [1]: 33.2 µM
- GI50 [2]: 16.4 µM
- TGI [2]: 30.3 µM
- GI50 [3]: 18.6 µM
- TGI [3]: 34.7 µM
- GI50 [4]: 14.3 µM
- TGI [4]: 28.5 µM
- GI50 [5]: 2.43 µM
- TGI [5]: 4.83 µM
- GI50 [6]: 25.9 µM
- TGI [6]: > 61.2 µM
- GI50 [7]: 18 µM
- TGI [7]: 33 µM
- GI50 [8]: 18.8 µM
- TGI [8]: 34.3 µM
- GI50 [9]: 16.9 µM
- TGI [9]: 30.9 µM
- GI50 [10]: 16.3 µM
- TGI [10]: 30.2 µM

Compound: COc1cccc(F)c1C(=O)c1cnc(NC2CCN(S(C)(=O)=O)CC2)nc1N
- GI50 [1]: 6.06 µM
- TGI [1]: > 25 µM
- GI50 [2]: 5.45 µM
- TGI [2]: 16.8 µM
- GI50 [3]: 4.75 µM
- TGI [3]: > 25 µM
- GI50 [4]: 1.34 µM
- TGI [4]: > 25 µM
- GI50 [5]: 1.44 µM
- TGI [5]: 13.3 µM
- GI50 [6]: 2.02 µM
- TGI [6]: > 20.7 µM
- GI50 [7]: 3.59 µM
- TGI [7]: > 25 µM
- GI50 [8]: 1.88 µM
- TGI [8]: 6.19 µM
- GI50 [9]: 3.68 µM
- TGI [9]: 11.7 µM
- GI50 [10]: 4.03 µM
- TGI [10]: > 25 µM

Compound: Cc1cc(C)c2c(n1)sc1c(Nc3ccc(Cl)cc3)ncnc12
- GI50 [1]: < 0.01 µM
- GI50 [2]: < 0.0161 µM
- TGI [2]: > 100 µM
- GI50 [3]: 7.4 µM
- TGI [3]: > 100 µM
- GI50 [4]: < 0.01 µM
- TGI [4]: > 100 µM
- GI50 [5]: < 0.01 µM
- GI50 [6]: 0.139 µM
- TGI [6]: > 100 µM
- GI50 [7]: < 0.0125 µM
- TGI [7]: > 100 µM
- GI50 [8]: 0.0195 µM
- TGI [8]: 0.0898 µM
- GI50 [9]: < 0.01 µM
- TGI [9]: 0.0882 µM
- GI50 [10]: > 100 µM
- TGI [10]: > 100 µM

Compound: c1ccc(-c2nnc(-c3ccccn3)s2)nc1
- GI50 [1]: > 100 µM
- TGI [1]: > 100 µM
- GI50 [2]: > 100 µM
- TGI [2]: > 100 µM
- GI50 [3]: > 100 µM
- TGI [3]: > 100 µM
- GI50 [4]: > 100 µM
- TGI [4]: > 100 µM
- GI50 [5]: > 100 µM
- TGI [5]: > 100 µM
- GI50 [6]: > 100 µM
- TGI [6]: > 100 µM
- GI50 [7]: > 100 µM
- TGI [7]: > 100 µM
- GI50 [8]: > 100 µM
- TGI [8]: > 100 µM
- GI50 [9]: > 100 µM
- TGI [9]: > 100 µM
- GI50 [10]: > 100 µM
- TGI [10]: > 100 µM

Compound: COc1cc(-c2oc(=O)ccc2C#Cc2ccccn2)cc(OC)c1OC
- GI50 [1]: 4.47 µM
- TGI [1]: > 100 µM
- GI50 [2]: 4.42 µM
- TGI [2]: > 100 µM
- GI50 [3]: 0.236 µM
- TGI [3]: 4.6 µM
- GI50 [4]: 2.75 µM
- TGI [4]: > 100 µM
- GI50 [5]: 2.14 µM
- TGI [5]: 6.4 µM
- GI50 [6]: 0.884 µM
- TGI [6]: > 100 µM
- GI50 [7]: 10.5 µM
- TGI [7]: > 100 µM
- GI50 [8]: 0.273 µM
- TGI [8]: 2.09 µM
- GI50 [9]: 3.03 µM
- TGI [9]: 13.8 µM
- GI50 [10]: 4.98 µM
- TGI [10]: > 100 µM

Compound: N#Cc1c(NC(=O)NCc2ccccc2)sc2c1CCCCC2
- GI50 [1]: 0.761 µM
- TGI [1]: > 100 µM
- GI50 [2]: 0.923 µM
- TGI [2]: > 100 µM
- GI50 [3]: 1.77 µM
- TGI [3]: > 28.5 µM
- GI50 [4]: 0.528 µM
- TGI [4]: > 100 µM
- GI50 [5]: 0.286 µM
- TGI [5]: 0.843 µM
- GI50 [6]: 0.448 µM
- TGI [6]: > 100 µM
- GI50 [7]: 2.05 µM
- TGI [7]: > 100 µM
- GI50 [8]: 0.352 µM
- TGI [8]: 2.38 µM
- GI50 [9]: 0.328 µM
- TGI [9]: 1.87 µM
- GI50 [10]: 5.92 µM
- TGI [10]: > 100 µM
